Laboratory results taken from patent US20040214767A1, “Regulation of follicular development and ovulation by cytoskeletal genes and gene products” (priority 2002, published 2004).

System: rat primary granulosa cells
Assay: Effects of CHX and alpha-amanitin on FSH/forskolin-induced expression of cytoskeletal genes in granulosa cells
Type: cell-based
Conditions: for β-tubulin mRNA: with or without FSH
Description: FIG. 8. Effects of CHX and alpha-amanitin treatment on the FSH/forskolin-induced expression of the cytoskeletal genes. Granulosa cells were isolated from the ovaries of 170 estradiol primed 24 day old immature rats. They were cultured in the medium containing FSH (30 ng/ml) or forskolin (10 microM, FSK) in the presence or absence of CHX (10 μg/ml) for 6 hours (A) or 24 hours (B). In addition, the 24 hours cells were also cultured, likewise, in the presence of alpha-amanitin (30 microg/ml, AMA). Total RNA was isolated and analyzed for mRNAs of TM4, Khc, beta-tubulin and inhibin alpha as described in the description of FIG. 7. Values are the meanfold increase over control (no treatment)±SE. Values were pooled from two separate experiments.
As a step to determine the mechanisms of the FSH-responsive mRNA expression, the granulosa cells were treated with FSH in the presence or absence of a translation inhibitor, CHX, and a transcription inhibitor, alpha amanitin.
Eighteen to twenty-one day old Sprague-Dawley female pups with nursing mothers were purchased from Harlan Breeding Company (Indianapolis, Ind.) and housed in a photoperiod of 14 h light/10 h darkness with light on at 0500 h. For in situ hybridization, rats were injected subcuteneoulsy with 15 IU PMSG (Sigma) in 0.1 ml PBS on 22-23 days of age. Depending on the experiments, PMSG 48 hours-primed rats were injected i.p. with 10 IU hCG. Ovaries were frozen on dry ice immediately after excision and stored at −80 C. […] Ovaries were collected in ice-cold serum-free 4F medium consisting of 15 mM HEPES (pH 7.4), 50% DMEM and 50% Ham's F12 with bovine transferrin (5 micro g/ml), human insulin (2 mg/ml), hydrocortisone (40 ng/ml) and antibiotics, and processed as previously described. Cells were washed three times, resuspended in 4F, plated on serum-coated. Six-well plate (1×10^6 cells in 2 ml per well), and incubated at 37 C for 16 hours. FSH (30 ng/ml) or forskolin (10 micro M) was added to the cell cultures. For the inhibition of protein synthesis or transcription, 10 micro g/ml of cycloheximide (CHX) or alpha-amanitin (30 microg/ml) was, respectively, added 1 h before hormone treatment.
RT-PCR was performed essentially as previously described (Ko, et al., Endocrinology 140:5185-5194. Total RNA (1-2 micro g) was reverse-transcribed at 37 C in a 20 micro L reaction volume using random hexamer (500 ng) and MMLV reverse transcriptase (10 units) (New England BioLabs, Boston, Mass.). Complementary DNA (cDNA) samples (2 micro L) were added to a total 25 micro L reaction mix containing the primers (200 ng each), 0.4 mM dNTP mixture, and Taq DNA polymerase (2.5 U) in 1×PCR buffer (10 mM Tris, pH 8.3, 50 mM KCl, 1.5 mM MgCl2, 0.01% gelatin). All PCR amplifications were carried out for 20, 25 or 30 cycles on a MJ Research Minicycler. PCR products were separated by 2% agarose gel electrophoresis, stained with SYBR® Green I (Molecular Probes), and visualized by phosphoimaging technology (FLA-2000; Fuji, Stamford, Conn.). The following primers were used in the present studies: TM4 (5′-gag aac tcc tga ctg aac tgg acg-3′(SEQ ID NO. 1) and 5′-cca tat tcc ctg ctg agc gta g-3′(SEQ ID NO. 2), 282 bp), Khc (5′-aac tga atc gcc tcc aag cag-3′ and 5′-cga act ggc gag aac tgg atg-3′, 195 bp), β-tubulin (5′-cct gct cat cag caa gat tcg-3′(SEQ ID NO. 3) and 5′-gtg gtg agc tta agg gta cgg, (SEQ ID NOI 4) 210 bp), and inhibin alpha subunit (5′-gct ttc cct ctg ttg acc cac-3′ (SEQ ID NO. 5) and 5′-aga tgt tga ggg cag ctc gat-3′, (SEQ ID NO. 6) 255 bp). L-19 (5′-ctg aag gtc aaa ggg aat gtg-3 (SEQ ID NO. 7) and 5′-gga cag agt ctt gat gat ctc, (SEQ ID NO. 8) 194 bp) oligo nucleotide primers were used to amplify ribosomal protein L-19 as an internal control.

[1] = CHX, cells treated with FSH for 24 hours
[2] = CHX, cells treated with FSH for six hours
[3] = cells treated with FSH for 24 hours
[4] = alpha-amanitin 30 microg/ml, 24 hours

With `C[C@@H]1C[C@@H]([C@H](O)CC2CC(=O)NC(=O)C2)C(=O)[C@@H](C)C1` [CHX, cycloheximide] the “β-tubulin mRNA level” value (24 hours FSH in the presence of CHX) was “decreased to apparent basal level”, the “β-tubulin mRNA” value (CHX 10 μg/ml, 6 hours) was “could not be detected” and the “TM4 mRNA level” value [1] was “slightly enhancing”. The “inhibin alpha mRNA level” value [1] was “substantially suppressing”, the “Khc mRNA level” value [2] was “lowered the Khc mRNA level, though not completely” and the “TM4 mRNA level” value [2] was “increased”. For the same compound, the “inhibin alpha mRNA level” value [2] was “increased” and the “effect on Khc mRNA level” value [3] was “marginal”.

`CC[C@H](C)[C@@H]1NC(=O)CNC(=O)[C@@H]2Cc3c([nH]c4cc(O)ccc34)[S+]([O-])C[C@@H](NC(=O)CNC1=O)C(=O)N[C@@H](CC(N)=O)C(=O)N1C[C@H](O)C[C@H]1C(=O)N[C@@H]([C@@H](C)[C@@H](O)CO)C(=O)N2` (stereo partly drawn) [alpha amanitin, alpha-amanitin] was tested, and the “FSH-induced mRNA expression of all of the cytoskeletal and inhibin alpha genes” value [4] was “blocked”, the “β-tubulin mRNA” value [4] was “blocked both the maintenance and FSH dependent increase” and the “effect on Khc mRNA level” value [3] was “marginal”.
